{
  "source": "ChEMBL document CHEMBL1201862",
  "about": "“PubChem BioAssay data set” (2004)",
  "assay_in_all_cases": "inhibition of tumour cell growth, NCI panel, 48 h",
  "key": {"786-0": {"system": "786-0"}, "A498": {"system": "A498"}, "A549": {"system": "A549"}, "ACHN": {"system": "ACHN"}, "BT-549": {"system": "BT-549"}, "CAKI-1": {"system": "CAKI-1"}, "CCRF-CEM": {"system": "CCRF-CEM"}, "COLO 205": {"system": "COLO 205"}, "DU-145": {"system": "DU-145"}, "EKVX": {"system": "EKVX"}, "HCC 2998": {"system": "HCC 2998"}, "HCT-116": {"system": "HCT-116"}, "HCT-15": {"system": "HCT-15"}, "HL-60": {"system": "HL-60"}, "HOP-62": {"system": "HOP-62"}, "HOP-92": {"system": "HOP-92"}, "HT-29": {"system": "HT-29"}, "Hs-578T": {"system": "Hs-578T"}, "IGROV-1": {"system": "IGROV-1"}, "K562": {"system": "K562"}, "KM12": {"system": "KM12"}, "LOX IMVI": {"system": "LOX IMVI"}, "M14": {"system": "M14"}, "MCF7": {"system": "MCF7"}, "MDA-MB-231": {"system": "MDA-MB-231"}, "MDA-MB-435": {"system": "MDA-MB-435"}, "MDA-N": {"system": "MDA-N"}, "MOLT-4": {"system": "MOLT-4"}, "Malme-3M": {"system": "Malme-3M"}, "NCI-H226": {"system": "NCI-H226"}, "NCI-H23": {"system": "NCI-H23"}, "NCI-H460": {"system": "NCI-H460"}, "NCI-H522": {"system": "NCI-H522"}, "NCI/ADR-RES": {"system": "NCI/ADR-RES"}, "OVCAR-3": {"system": "OVCAR-3"}, "OVCAR-4": {"system": "OVCAR-4"}, "OVCAR-5": {"system": "OVCAR-5"}, "OVCAR-8": {"system": "OVCAR-8"}, "PC-3": {"system": "PC-3"}, "RPMI-8226": {"system": "RPMI-8226"}, "RXF 393": {"system": "RXF 393"}, "SF-268": {"system": "SF-268"}, "SF-295": {"system": "SF-295"}, "SF-539": {"system": "SF-539"}, "SK-MEL-28": {"system": "SK-MEL-28"}, "SK-MEL-2": {"system": "SK-MEL-2"}, "SK-MEL-5": {"system": "SK-MEL-5"}, "SK-OV-3": {"system": "SK-OV-3"}, "SN12C": {"system": "SN12C"}, "SNB-19": {"system": "SNB-19"}, "SNB-75": {"system": "SNB-75"}, "SR": {"system": "SR"}, "SW-620": {"system": "SW-620"}, "T47D": {"system": "T47D"}, "TK-10": {"system": "TK-10"}, "U-251": {"system": "U-251"}, "UACC-257": {"system": "UACC-257"}, "UACC-62": {"system": "UACC-62"}, "UO-31": {"system": "UO-31"}},
  "note": "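Grown in 96-well plates, cells were treated for 48 hours with each compound at five concentrations. Insufficient inhibition: endpoint recorded as highest concentration tested. GI50 is the concentration that inhibits growth by half.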 Calls of active or inactive are those of the source. Cut-off read from the data, not from the text of the source: active = GI50 up to about 1.1 µM and inactive = higher.",
  "data": [
    {"smiles": "COC(=O)/C=C/C(=O)Nc1cc(Cl)c(Cl)cc1CC(=O)N(C)[C@H]1CCCC[C@@H]1N1CCCC1", "values": [
      {"measurement": "GI50", "setting": "786-0", "value": "3.83 µM (inactive)"},
      {"measurement": "GI50", "setting": "A498", "value": "14.4 µM (inactive)"},
      {"measurement": "GI50", "setting": "A549", "value": "21.5 µM (inactive)"},
      {"measurement": "GI50", "setting": "ACHN", "value": "2.85 µM (inactive)"},
      {"measurement": "GI50", "setting": "BT-549", "value": "12.9 µM (inactive)"},
      {"measurement": "GI50", "setting": "CAKI-1", "value": "5.37 µM (inactive)"},
      {"measurement": "GI50", "setting": "CCRF-CEM", "value": "2.79 µM (inactive)"},
      {"measurement": "GI50", "setting": "COLO 205", "value": "1.54 µM (inactive)"},
      {"measurement": "GI50", "setting": "DU-145", "value": "5.02 µM (inactive)"},
      {"measurement": "GI50", "setting": "EKVX", "value": "13.1 µM (inactive)"},
      {"measurement": "GI50", "setting": "HCC 2998", "value": "7.67 µM (inactive)"},
      {"measurement": "GI50", "setting": "HCT-116", "value": "6.5 µM (inactive)"},
      {"measurement": "GI50", "setting": "HCT-15", "value": 11.4, "unit": "µM"},
      {"measurement": "GI50", "setting": "HL-60", "value": "2.06 µM (inactive)"},
      {"measurement": "GI50", "setting": "HOP-62", "value": "16.9 µM (inactive)"},
      {"measurement": "GI50", "setting": "HOP-92", "value": "5.74 µM (inactive)"},
      {"measurement": "GI50", "setting": "HT-29", "value": "7.8 µM (inactive)"},
      {"measurement": "GI50", "setting": "Hs-578T", "value": "18.1 µM (inactive)"},
      {"measurement": "GI50", "setting": "IGROV-1", "value": "7.21 µM (inactive)"},
      {"measurement": "GI50", "setting": "K562", "value": "3.72 µM (inactive)"},
      {"measurement": "GI50", "setting": "KM12", "value": "22.1 µM (inactive)"},
      {"measurement": "GI50", "setting": "LOX IMVI", "value": "5.3 µM (inactive)"},
      {"measurement": "GI50", "setting": "M14", "value": "7.41 µM (inactive)"},
      {"measurement": "GI50", "setting": "MCF7", "value": "3.49 µM (inactive)"},
      {"measurement": "GI50", "setting": "MDA-MB-231", "value": "13.3 µM (inactive)"},
      {"measurement": "GI50", "setting": "MDA-MB-435", "value": "5.61 µM (inactive)"},
      {"measurement": "GI50", "setting": "MDA-N", "value": "6.61 µM (inactive)"},
      {"measurement": "GI50", "setting": "MOLT-4", "value": "3.18 µM (inactive)"},
      {"measurement": "GI50", "setting": "Malme-3M", "value": "6.41 µM (inactive)"},
      {"measurement": "GI50", "setting": "NCI-H226", "value": "15.3 µM (inactive)"},
      {"measurement": "GI50", "setting": "NCI-H23", "value": "13.8 µM (inactive)"},
      {"measurement": "GI50", "setting": "NCI-H460", "value": "17.3 µM (inactive)"},
      {"measurement": "GI50", "setting": "NCI-H522", "value": "1.79 µM (inactive)"},
      {"measurement": "GI50", "setting": "NCI/ADR-RES", "value": "14.7 µM (inactive)"},
      {"measurement": "GI50", "setting": "OVCAR-3", "value": "3.27 µM (inactive)"},
      {"measurement": "GI50", "setting": "OVCAR-4", "value": "8.63 µM (inactive)"},
      {"measurement": "GI50", "setting": "OVCAR-5", "value": "15.8 µM (inactive)"},
      {"measurement": "GI50", "setting": "OVCAR-8", "value": "5.27 µM (inactive)"},
      {"measurement": "GI50", "setting": "PC-3", "value": "5.05 µM (inactive)"},
      {"measurement": "GI50", "setting": "RPMI-8226", "value": "2.63 µM (inactive)"},
      {"measurement": "GI50", "setting": "RXF 393", "value": "4.01 µM (inactive)"},
      {"measurement": "GI50", "setting": "SF-268", "value": "18.7 µM (inactive)"},
      {"measurement": "GI50", "setting": "SF-295", "value": "18.3 µM (inactive)"},
      {"measurement": "GI50", "setting": "SF-539", "value": "5.04 µM (inactive)"},
      {"measurement": "GI50", "setting": "SK-MEL-28", "value": "16.1 µM (inactive)"},
      {"measurement": "GI50", "setting": "SK-MEL-2", "value": "7.29 µM (inactive)"},
      {"measurement": "GI50", "setting": "SK-MEL-5", "value": "8.67 µM (inactive)"},
      {"measurement": "GI50", "setting": "SK-OV-3", "value": "18.1 µM (inactive)"},
      {"measurement": "GI50", "setting": "SN12C", "value": "10.2 µM (inactive)"},
      {"measurement": "GI50", "setting": "SNB-19", "value": "18.3 µM (inactive)"},
      {"measurement": "GI50", "setting": "SNB-75", "value": "13.8 µM (inactive)"},
      {"measurement": "GI50", "setting": "SR", "value": "1.95 µM (inactive)"},
      {"measurement": "GI50", "setting": "SW-620", "value": "3.63 µM (inactive)"},
      {"measurement": "GI50", "setting": "T47D", "value": "8.73 µM (inactive)"},
      {"measurement": "GI50", "setting": "TK-10", "value": "2.29 µM (inactive)"},
      {"measurement": "GI50", "setting": "U-251", "value": "14.8 µM (inactive)"},
      {"measurement": "GI50", "setting": "UACC-257", "value": "3.05 µM (inactive)"},
      {"measurement": "GI50", "setting": "UACC-62", "value": "13.9 µM (inactive)"},
      {"measurement": "GI50", "setting": "UO-31", "value": "4.52 µM (inactive)"}
    ]}
  ]
}
